# Data: ChEMBL document CHEMBL2203210, “SAR and in vivo evaluation of 4-aryl-2-aminoalkylpyrimidines as potent and selective Janus kinase 2 (JAK2) inhibitors” (Bioorg Med Chem Lett, 2012)
# Key:
# Cytochrome P450 2C9 = Cytochrome P450 2C9 (Homo sapiens, UniProt P11712); test: Inhibition of CYP2C9; format: ADME
# Canis familiaris [1] = test: Dose normalized AUC in Beagle dog at 3 mg/kg, iv; format: ADME, organism-based, Canis lupus familiaris; parameters: dose 3 mg/kg, route intravenous; settings: in vivo
# [2] = molecular target: T1, Tyrosine-protein kinase JAK3 (Homo sapiens, UniProt P52333)
# T1 sequence (P52333 whole entry): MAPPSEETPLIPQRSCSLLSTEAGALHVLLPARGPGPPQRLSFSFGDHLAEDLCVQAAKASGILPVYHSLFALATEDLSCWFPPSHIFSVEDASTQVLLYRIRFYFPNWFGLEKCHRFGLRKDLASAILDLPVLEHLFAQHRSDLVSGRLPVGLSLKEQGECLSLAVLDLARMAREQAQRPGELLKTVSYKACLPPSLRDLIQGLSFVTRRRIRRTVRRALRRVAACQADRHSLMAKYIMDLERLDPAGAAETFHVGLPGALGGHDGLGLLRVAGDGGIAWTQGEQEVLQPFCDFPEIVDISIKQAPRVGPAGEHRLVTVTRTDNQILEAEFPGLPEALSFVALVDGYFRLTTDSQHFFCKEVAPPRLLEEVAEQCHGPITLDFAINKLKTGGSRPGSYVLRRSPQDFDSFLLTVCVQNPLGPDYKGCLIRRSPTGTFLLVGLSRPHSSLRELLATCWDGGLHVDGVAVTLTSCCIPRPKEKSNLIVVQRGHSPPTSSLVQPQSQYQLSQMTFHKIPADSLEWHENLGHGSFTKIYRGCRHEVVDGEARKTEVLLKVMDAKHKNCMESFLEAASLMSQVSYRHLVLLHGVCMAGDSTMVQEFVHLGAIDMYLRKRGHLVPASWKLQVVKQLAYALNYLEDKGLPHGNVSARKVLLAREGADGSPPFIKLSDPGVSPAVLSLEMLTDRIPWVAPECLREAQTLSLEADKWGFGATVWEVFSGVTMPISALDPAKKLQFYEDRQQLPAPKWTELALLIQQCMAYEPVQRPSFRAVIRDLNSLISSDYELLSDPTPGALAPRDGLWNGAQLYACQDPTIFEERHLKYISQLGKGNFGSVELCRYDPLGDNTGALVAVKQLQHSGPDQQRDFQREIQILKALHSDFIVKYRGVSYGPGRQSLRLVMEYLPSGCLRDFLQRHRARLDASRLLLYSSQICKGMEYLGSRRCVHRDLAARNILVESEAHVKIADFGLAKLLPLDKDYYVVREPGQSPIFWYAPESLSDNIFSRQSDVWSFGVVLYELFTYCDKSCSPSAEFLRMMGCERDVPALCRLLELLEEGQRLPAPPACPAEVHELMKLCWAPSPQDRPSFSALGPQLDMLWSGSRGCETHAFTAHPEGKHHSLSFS
# Mus musculus [3] = test: Inhibition of JAK2 in HEL 92.1.7 cells xenografted in nude mouse assessed as inhibition of STAT1 phosphorylation at 30 mg/kg, po after 4 hrs relative to vehicle-treated control; format: functional
# [4] = Oral bioavailability in Beagle dog at 3 mg/kg; format: ADME, organism-based, Canis lupus familiaris; settings: in vivo
# [5] = Plasma concentration in nude mouse xenografted with HEL 92.1.7 cells at 300 mg/kg, po after 4 hrs; format: ADME, organism-based; parameters: dose 300 mg/kg, route oral
# Rattus norvegicus = test: Dose normalized AUC in CD rat at 5 mg/kg, iv; format: ADME, organism-based; parameters: dose 5 mg/kg, route intravenous; settings: in vivo
# Mus musculus [6] = test: Inhibition of JAK2 in HEL 92.1.7 cells xenografted in nude mouse assessed as inhibition of STAT1 phosphorylation at 300 mg/kg, po after 4 hrs relative to vehicle-treated control; format: functional
# Mus musculus [7] = test: Volume of distribution in athymic nude mouse at 10 mg/kg, po and iv; format: ADME, organism-based; parameters: dose 10 mg/kg, route oral; settings: in vivo
# [8] = molecular target: Vascular endothelial growth factor receptor 3 (Homo sapiens, UniProt P35916); test: Inhibition of FLT4
# [9] = Cmax in CD rat at 5 mg/kg, iv; format: ADME, organism-based; parameters: dose 5 mg/kg, route intravenous; settings: in vivo
# Cytochrome P450 3A4 = Cytochrome P450 3A4 (Homo sapiens, UniProt P08684); test: Inhibition of CYP3A4; format: ADME
# Canis familiaris [10] = test: Volume of distribution in Beagle dog at 3 mg/kg, po and iv; format: ADME, organism-based, Canis lupus familiaris; parameters: dose 3 mg/kg, route oral; settings: in vivo
# Chain of Cytochrome P450 2C9 (P11712 whole entry): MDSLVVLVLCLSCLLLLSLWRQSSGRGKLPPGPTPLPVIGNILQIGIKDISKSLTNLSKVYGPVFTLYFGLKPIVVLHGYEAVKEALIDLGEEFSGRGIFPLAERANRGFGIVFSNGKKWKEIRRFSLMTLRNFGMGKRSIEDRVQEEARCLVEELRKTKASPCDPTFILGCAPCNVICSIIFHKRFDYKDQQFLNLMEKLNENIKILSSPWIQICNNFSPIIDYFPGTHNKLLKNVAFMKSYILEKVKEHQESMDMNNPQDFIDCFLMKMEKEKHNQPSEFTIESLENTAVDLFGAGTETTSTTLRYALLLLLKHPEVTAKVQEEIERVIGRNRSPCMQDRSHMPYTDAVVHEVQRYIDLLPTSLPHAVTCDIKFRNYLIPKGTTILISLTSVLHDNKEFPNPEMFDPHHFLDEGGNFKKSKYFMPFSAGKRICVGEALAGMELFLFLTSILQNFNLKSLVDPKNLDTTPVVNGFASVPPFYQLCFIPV
# Chain of Cytochrome P450 3A4 (P08684 whole entry): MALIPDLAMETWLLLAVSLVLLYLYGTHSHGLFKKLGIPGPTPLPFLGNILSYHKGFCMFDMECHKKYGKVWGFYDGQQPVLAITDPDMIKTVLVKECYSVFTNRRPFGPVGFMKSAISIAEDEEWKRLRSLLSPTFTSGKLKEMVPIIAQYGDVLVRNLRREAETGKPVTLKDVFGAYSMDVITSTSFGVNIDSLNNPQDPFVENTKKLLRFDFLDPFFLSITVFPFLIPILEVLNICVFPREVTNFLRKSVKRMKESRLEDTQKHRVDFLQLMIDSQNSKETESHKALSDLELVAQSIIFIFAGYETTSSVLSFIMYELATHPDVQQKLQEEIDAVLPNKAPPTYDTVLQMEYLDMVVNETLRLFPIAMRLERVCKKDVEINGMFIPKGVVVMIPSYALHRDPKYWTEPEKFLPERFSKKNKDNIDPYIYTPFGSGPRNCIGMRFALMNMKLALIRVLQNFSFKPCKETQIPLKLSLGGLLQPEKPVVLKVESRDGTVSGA
# Chain of Vascular endothelial growth factor receptor 3 (P35916 whole entry): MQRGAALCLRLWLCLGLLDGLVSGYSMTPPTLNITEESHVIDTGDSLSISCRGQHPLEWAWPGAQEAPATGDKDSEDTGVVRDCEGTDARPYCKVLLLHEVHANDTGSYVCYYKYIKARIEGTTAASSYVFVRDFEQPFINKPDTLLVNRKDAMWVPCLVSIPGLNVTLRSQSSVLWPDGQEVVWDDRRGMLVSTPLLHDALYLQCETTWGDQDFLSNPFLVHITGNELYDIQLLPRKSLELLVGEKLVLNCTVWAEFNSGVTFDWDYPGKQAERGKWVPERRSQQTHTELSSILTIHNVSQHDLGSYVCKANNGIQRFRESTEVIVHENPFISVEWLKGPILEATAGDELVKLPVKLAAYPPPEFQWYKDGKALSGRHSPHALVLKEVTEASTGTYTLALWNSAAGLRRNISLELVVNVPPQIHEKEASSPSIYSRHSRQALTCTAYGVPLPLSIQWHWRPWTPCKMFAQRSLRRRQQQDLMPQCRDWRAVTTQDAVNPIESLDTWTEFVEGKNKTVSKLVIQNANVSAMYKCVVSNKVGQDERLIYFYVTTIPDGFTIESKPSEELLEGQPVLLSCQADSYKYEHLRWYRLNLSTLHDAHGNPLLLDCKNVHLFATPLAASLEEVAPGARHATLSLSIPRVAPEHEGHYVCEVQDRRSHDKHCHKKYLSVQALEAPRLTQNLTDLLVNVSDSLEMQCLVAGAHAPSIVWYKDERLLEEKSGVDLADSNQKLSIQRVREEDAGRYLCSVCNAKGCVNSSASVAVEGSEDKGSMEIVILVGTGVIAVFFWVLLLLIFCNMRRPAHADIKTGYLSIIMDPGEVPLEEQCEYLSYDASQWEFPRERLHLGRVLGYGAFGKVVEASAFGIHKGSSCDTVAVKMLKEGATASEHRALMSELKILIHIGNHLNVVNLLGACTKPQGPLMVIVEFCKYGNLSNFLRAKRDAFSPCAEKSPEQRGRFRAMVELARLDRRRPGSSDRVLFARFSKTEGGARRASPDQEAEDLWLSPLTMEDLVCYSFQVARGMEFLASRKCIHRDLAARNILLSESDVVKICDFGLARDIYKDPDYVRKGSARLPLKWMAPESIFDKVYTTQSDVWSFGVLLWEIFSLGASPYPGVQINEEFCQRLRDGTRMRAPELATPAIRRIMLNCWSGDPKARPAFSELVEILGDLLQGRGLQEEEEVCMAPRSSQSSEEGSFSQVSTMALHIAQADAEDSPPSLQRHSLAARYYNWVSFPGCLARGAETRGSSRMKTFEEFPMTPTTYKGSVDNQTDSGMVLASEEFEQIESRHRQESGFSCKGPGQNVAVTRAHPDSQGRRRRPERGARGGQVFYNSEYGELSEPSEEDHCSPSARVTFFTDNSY
structure (smiles),measurement,setting,value
O=C(Nc1ccc(-c2ccnc(Nc3ccc(N4CCOCC4)cc3)n2)cc1)[C@H]1CCCN1,INH,Cytochrome P450 2C9,>= 20 uM
same,AUC/dose,Canis familiaris [1],1.47 µM·kg·h/mg
same,IC50,[2],214 nM
same,inhibition in vivo at 30 mg/kg,Mus musculus [3],41%
same,bioavailability,[4],44.8%
same,concentration at 4 h,[5],20.2 µM
same,AUC/dose,Rattus norvegicus,15.99 µM·kg·h/mg
same,inhibition in vivo at 300 mg/kg,Mus musculus [6],88%
same,Vd,Mus musculus [7],5.319 L/kg
same,IC50,[8],555 nM
same,Cmax,[9],13 µM
same,INH,Cytochrome P450 3A4,>= 20 uM
same,Vd,Canis familiaris [10],13.4 L/kg
